Read-outs that look alike come from different tables or passages of the source.
Legend:
[1] = test system: HepG2 cells; assay: Annexin V/PI cell apoptosis assay (flow cytometry); details: annexin V-FITC/PI
Procedure: After 10 min of incubation, 1 µl PI was added to each sample and mixed gently. After incubation at room temperature for another 20 min in the dark, cells were subjected to flow cytometer (CytoFLEX, Beckman Coulter, Brea, CA).

[2] = biological target: HDAC4 (Homo sapiens, UniProt P56524); assay: In vitro HDACs inhibitory assay, recombinant HDAC4
Procedure: (§2) All of the HDAC enzymes were purchased from BPS Bioscience (San Diego, CA). Briefly, 20 μl of HeLa nucleus extract or recombinant HDAC enzyme solution was mixed with various concentrations of tested compound (20 μl). The mixture was incubated at 30 °C for 1 h (for the time-dependent assay, the mixture was incubated for 15, 30, 60, and 90 min, respectively), then 10 μl of fluorogenic substrate (Boc-Lys (acetyl)-AMC (3 mM) for HDAC1, 2, 3, and 6, Boc-Lys (trifluoroacetyl)-AMC (3 mM) for HDAC 4, 7, 8, and 9) was added. After incubation at 30 °C for 2 h, the catalytic reaction was stopped by addition of 10 μl of developer containing trypsin and trichostatin A (TSA). After 30 min, fluorescence intensity was measured using a microplate reader at excitation and emission wavelengths of 360 and 460 nm, respectively. The inhibition ratios were calculated from the fluorescence intensity readings of tested wells relative to those of control wells, and the IC50 curves and values were determined by GraphPad Prism 6.0 software (La Jolla, CA).

[3] = test system: MDA-MB-231 cells; assay: MTT antiproliferative assay, MDA-MB-231; type: cell-based; details: Homo sapiens, breast carcinoma
Procedure: (§1) The stock solutions of tested compounds were diluted with culture medium. […] Then, the cells were treated with compound sample at various concentrations for 48 h. Afterward, […] working solution (5 mg/ml) was added to each well and incubated for another 4 h. After incubation, the […] formed from MTT was extracted by adding DMSO (200 µl). The optical density (OD) at 490 nm and 630 nm were measured by Universal Microplate Spectrophotometer. […] The IC50 values were calculated with Origin 7.5 software (Originlab Corporation, Northampton, MA), and standard deviations of the IC50 values were obtained through at least 3 independent experiments.

[4] = biological target: HDAC7 (Homo sapiens, UniProt Q8WUI4); assay: In vitro HDACs inhibitory assay, recombinant HDAC7
Procedure: as §2

[5] = test system: PNAC-1 cells; assay: MTT antiproliferative assay, PNAC-1; type: cell-based
Procedure: as §1

[6] = test system: MDA-MB-468 cells; assay: MTT antiproliferative assay, MDA-MB-468; type: cell-based; details: Homo sapiens, breast carcinoma
Procedure: as §1

[7] = test system: K562 cells; assay: MTT antiproliferative assay, K562; type: cell-based; details: Homo sapiens, leukemia
Procedure: as §1

[8] = test system: SKOV3 cells; assay: MTT antiproliferative assay, SKOV3; type: cell-based; details: Homo sapiens, SK-OV-3, ovarian cancer
Procedure: as §1

[9] = test system: HDACs (HeLa nucleus extract containing a mixture of HDAC isoforms); assay: HDAC inhibitory assay with HeLa nucleus extract; details: at the concentration of 1 µM
[10] = biological target: HDAC8 (Homo sapiens, UniProt Q9BY41); assay: In vitro HDACs inhibitory assay, recombinant HDAC8
Procedure: as §2

[11] = test system: OPM2 cells; assay: MTT antiproliferative assay, OPM2; type: cell-based; details: Homo sapiens, OPM-2, multiple myeloma
Procedure: as §1

[12] = biological target: HDAC6 (Homo sapiens, UniProt Q9UBN7); assay: In vitro HDACs inhibitory assay, recombinant HDAC6
Procedure: as §2

[13] = test system: U266 cells; assay: MTT antiproliferative assay, U266
Procedure: (§3) The stock solutions of tested compounds were diluted with culture medium. […] Then, the cells were treated with compound sample at various concentrations for 48 h. Afterward, 20 MTT working solution (5 mg/ml) was added to each well and incubated for another 4 h. After incubation, the medium formed from MTT was extracted by adding DMSO (200 µl). The optical density (OD) at 490 nm and 630 nm were measured by Universal Microplate Spectrophotometer. […] The IC50 values were calculated with Origin 7.5 software (Originlab Corporation, Northampton, MA), and standard deviations of the IC50 values were obtained through at least 3 independent experiments.
To evaluate the antiproliferative activity of hydroxamic acid containing molecules, MTT assays were performed using U937, U266, and HepG2 cell lines.

[14] = biological target: HDAC1 (Homo sapiens, UniProt Q13547); assay: In vitro HDACs inhibitory assay, recombinant HDAC1
Procedure: as §2

[15] = test system: HepG2 xenograft; details: for mean weight of tumours: n = 7
[16] = test system: MCF-7 cells; assay: MTT antiproliferative assay, MCF-7; type: cell-based; details: Homo sapiens, MCF7, breast carcinoma
Procedure: as §1

[17] = biological target: HDAC3 (Homo sapiens, UniProt O15379); assay: In vitro HDACs inhibitory assay, recombinant HDAC3
Procedure: as §2

[18] = test system: HepG2 cells; assay: MTT antiproliferative assay, HepG2
Procedure: as §3

[19] = test system: H1299 cells; assay: MTT antiproliferative assay, H1299; type: cell-based; details: Homo sapiens, NCI-H1299, lung cancer
Procedure: as §1

[20] = test system: A2780 cells; assay: MTT antiproliferative assay, A2780; type: cell-based; details: for IC50: Homo sapiens
Procedure: The stock solutions of tested compounds were diluted with culture medium. Briefly, the cells were seeded into each well of 96-well plate, which were incubated at 37 °C, 5% CO2 until confluency 90–95%. Then, the cells were treated with compound sample at various concentrations for 48 h. Afterward, […] working solution (5 mg/ml) was added to each well and incubated for another 4 h. After incubation, the […] formed from MTT was extracted by adding DMSO (200 µl). The optical density (OD) at 490 nm and 630 nm were measured by Universal Microplate Spectrophotometer. […] The IC50 values were calculated with Origin 7.5 software (Originlab Corporation, Northampton, MA), and standard deviations of the IC50 values were obtained through at least 3 independent experiments.
A series of tumour cell lines including the lung cancer A549, Calu-3, SPC-A-1, H322, H1299, breast cancer MDA-MB-231, MCF-7, MDA-MB-468, colon carcinoma LoVo, Colo205, ovarian cancer A2780, SKOV3, gastric cancer MKN45, pancreatic cancer PNAC-1, leukemic K562, and multiple myeloma OPM2 cells were cultured for the antiproliferative assay of active compound I13. In the present study, molecule I13 could inhibit the growth of both solid and haematologic tumour cell lines (Table 4). […]. The antiproliferative activity of molecule I13 was considered to be restricted by the poor enzyme inhibitory selectivity. Enhancement of selectivity could be a useful strategy to improve the anticancer activity of this group of HDACIs.

[21] = biological target: HDAC9 (Homo sapiens, UniProt Q9UKV0); assay: In vitro HDACs inhibitory assay, recombinant HDAC9
Procedure: as §2

[22] = Water solubility; type: physicochemical
[23] = test system: U937 cells; assay: MTT antiproliferative assay, U937; details: Homo sapiens, U-937, 48 h, read-out: U937 IC50
Procedure: as §3

[24] = test system: LoVo cells; assay: MTT antiproliferative assay, LoVo; type: cell-based; details: Homo sapiens, colon carcinoma
Procedure: as §1

[25] = test system: SPC-A-1 cells; assay: MTT antiproliferative assay, SPC-A-1; type: cell-based; details: SPCA1, lung cancer
Procedure: as §1

[26] = test system: Calu-3 cells; assay: MTT antiproliferative assay, Calu-3; type: cell-based; details: Homo sapiens, lung cancer
Procedure: as §1

[27] = test system: H322 cells; assay: MTT antiproliferative assay, H322; type: cell-based; details: NCI-H322, lung cancer
Procedure: as §1

[28] = biological target: HDAC2 (Homo sapiens, UniProt Q92769); assay: In vitro HDACs inhibitory assay, recombinant HDAC2
Procedure: as §2

[29] = test system: Colo205 cells; assay: MTT antiproliferative assay, Colo205; type: cell-based; details: Homo sapiens, COLO 205, colon carcinoma
Procedure: as §1

[30] = test system: MKN45 cells; assay: MTT antiproliferative assay, MKN45; type: cell-based; details: Homo sapiens, MKN-45, gastric cancer
Procedure: as §1

[31] = test system: A549 cells; assay: MTT antiproliferative assay, A549; type: cell-based; details: Homo sapiens, lung cancer
Procedure: as §1

[32] = 50 mg/kg/d intragastric, 16 days, HepG2 xenograft

Sequence of HDAC1 (Q13547 whole entry): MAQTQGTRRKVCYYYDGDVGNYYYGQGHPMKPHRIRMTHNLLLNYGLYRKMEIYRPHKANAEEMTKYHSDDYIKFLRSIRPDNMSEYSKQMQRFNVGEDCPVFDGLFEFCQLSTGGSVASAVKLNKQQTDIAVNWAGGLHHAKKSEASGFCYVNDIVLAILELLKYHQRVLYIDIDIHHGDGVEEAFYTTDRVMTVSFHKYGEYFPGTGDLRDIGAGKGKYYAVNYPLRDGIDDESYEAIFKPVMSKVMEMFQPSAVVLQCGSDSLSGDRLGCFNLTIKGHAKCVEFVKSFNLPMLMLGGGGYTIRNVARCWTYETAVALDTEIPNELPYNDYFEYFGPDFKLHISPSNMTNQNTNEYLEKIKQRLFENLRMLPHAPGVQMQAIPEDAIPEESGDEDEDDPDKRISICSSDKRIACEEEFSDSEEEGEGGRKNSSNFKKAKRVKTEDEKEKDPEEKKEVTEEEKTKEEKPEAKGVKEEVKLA
Sequence of HDAC7 (Q8WUI4 whole entry): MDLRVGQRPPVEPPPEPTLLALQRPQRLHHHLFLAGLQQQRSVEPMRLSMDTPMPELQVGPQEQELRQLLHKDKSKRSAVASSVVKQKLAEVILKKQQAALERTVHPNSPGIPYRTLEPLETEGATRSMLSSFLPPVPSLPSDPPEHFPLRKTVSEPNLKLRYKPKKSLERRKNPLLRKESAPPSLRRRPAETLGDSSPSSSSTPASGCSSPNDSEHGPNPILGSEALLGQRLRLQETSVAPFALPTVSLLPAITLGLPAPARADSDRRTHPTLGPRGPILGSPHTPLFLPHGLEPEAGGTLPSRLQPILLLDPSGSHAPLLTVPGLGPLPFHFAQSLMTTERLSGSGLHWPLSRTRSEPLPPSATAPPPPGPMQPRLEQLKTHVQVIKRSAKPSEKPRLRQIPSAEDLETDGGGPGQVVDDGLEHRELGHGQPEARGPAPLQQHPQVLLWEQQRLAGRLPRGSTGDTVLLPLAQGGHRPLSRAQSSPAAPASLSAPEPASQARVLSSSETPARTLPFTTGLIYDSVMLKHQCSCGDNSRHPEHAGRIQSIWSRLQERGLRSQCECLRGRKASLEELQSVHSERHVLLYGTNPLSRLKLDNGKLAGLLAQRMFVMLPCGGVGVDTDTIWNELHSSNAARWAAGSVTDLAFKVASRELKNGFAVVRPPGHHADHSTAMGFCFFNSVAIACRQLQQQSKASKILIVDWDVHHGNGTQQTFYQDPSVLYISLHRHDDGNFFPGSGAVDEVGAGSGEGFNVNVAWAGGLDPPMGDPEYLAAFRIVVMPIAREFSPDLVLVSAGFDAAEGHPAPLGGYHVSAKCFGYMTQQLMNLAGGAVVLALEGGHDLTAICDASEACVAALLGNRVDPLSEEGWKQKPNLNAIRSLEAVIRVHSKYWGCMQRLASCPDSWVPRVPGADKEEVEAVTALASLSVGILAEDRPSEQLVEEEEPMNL
Sequence of HDAC8 (Q9BY41 whole entry): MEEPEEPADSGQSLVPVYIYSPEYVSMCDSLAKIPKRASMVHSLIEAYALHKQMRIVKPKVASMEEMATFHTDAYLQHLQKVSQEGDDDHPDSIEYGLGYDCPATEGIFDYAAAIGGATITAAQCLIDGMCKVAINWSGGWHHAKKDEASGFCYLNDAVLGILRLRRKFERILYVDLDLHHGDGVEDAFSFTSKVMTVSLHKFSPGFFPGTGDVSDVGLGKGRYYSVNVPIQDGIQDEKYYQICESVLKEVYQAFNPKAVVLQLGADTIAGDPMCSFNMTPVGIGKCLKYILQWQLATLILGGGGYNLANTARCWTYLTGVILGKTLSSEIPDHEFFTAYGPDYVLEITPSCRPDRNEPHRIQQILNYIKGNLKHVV
Sequence of HDAC9 (Q9UKV0 whole entry): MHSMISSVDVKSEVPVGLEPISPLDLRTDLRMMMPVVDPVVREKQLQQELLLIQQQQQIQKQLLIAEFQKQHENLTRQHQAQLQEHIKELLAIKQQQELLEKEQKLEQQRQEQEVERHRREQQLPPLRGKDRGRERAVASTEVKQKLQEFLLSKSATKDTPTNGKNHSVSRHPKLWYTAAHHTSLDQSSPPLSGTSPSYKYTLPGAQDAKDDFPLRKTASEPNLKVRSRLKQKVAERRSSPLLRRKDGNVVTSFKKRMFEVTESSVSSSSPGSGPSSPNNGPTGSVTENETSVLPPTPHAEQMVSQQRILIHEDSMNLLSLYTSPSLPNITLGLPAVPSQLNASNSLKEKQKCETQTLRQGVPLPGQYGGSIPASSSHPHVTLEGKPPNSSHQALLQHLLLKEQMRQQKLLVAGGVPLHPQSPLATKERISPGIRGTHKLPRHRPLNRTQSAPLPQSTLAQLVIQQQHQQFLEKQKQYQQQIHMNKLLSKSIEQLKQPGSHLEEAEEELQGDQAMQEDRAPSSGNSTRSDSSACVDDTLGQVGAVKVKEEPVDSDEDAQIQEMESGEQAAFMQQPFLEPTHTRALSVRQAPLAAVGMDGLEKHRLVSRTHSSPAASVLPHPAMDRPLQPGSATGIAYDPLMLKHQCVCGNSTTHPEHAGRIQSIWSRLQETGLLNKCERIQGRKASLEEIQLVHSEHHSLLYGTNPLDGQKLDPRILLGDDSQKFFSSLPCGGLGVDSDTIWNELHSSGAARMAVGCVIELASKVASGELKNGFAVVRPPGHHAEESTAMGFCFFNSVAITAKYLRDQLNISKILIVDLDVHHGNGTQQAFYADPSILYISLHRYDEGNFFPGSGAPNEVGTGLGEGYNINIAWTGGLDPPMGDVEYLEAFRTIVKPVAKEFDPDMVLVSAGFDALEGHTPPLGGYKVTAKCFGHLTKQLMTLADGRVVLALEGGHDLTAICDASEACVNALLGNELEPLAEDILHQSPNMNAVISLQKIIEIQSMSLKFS
Sequence of HDAC6 (Q9UBN7 whole entry): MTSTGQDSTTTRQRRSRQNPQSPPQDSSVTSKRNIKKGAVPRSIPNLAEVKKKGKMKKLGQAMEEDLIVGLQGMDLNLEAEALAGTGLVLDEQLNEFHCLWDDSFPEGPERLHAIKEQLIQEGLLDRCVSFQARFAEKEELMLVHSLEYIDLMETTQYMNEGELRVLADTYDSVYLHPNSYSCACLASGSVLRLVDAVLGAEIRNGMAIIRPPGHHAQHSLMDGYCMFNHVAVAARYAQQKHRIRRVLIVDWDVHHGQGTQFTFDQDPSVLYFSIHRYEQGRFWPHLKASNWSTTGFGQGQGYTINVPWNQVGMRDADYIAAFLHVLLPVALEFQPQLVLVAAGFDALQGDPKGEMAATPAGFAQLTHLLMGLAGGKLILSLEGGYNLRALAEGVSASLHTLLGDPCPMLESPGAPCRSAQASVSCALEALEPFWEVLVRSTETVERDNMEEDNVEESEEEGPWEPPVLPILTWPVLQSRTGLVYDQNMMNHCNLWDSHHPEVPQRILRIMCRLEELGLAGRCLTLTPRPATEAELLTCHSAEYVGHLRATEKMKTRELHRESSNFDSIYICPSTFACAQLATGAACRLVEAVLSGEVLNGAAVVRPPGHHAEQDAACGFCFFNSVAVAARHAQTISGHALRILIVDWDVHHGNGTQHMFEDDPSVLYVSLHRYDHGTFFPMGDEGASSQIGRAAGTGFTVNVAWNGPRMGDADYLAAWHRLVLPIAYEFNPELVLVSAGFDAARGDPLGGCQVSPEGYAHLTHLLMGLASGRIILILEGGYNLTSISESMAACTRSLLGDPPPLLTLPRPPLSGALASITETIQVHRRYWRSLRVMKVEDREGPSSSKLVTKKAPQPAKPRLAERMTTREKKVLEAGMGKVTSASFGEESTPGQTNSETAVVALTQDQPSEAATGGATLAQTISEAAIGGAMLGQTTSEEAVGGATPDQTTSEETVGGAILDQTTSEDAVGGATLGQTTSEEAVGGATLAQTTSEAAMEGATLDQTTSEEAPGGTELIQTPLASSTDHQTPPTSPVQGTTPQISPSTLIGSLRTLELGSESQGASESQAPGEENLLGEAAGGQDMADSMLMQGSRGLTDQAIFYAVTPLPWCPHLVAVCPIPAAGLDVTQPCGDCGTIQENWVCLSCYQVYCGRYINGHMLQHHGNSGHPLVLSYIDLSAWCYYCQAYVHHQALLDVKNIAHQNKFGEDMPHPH
Sequence of HDAC3 (O15379 whole entry): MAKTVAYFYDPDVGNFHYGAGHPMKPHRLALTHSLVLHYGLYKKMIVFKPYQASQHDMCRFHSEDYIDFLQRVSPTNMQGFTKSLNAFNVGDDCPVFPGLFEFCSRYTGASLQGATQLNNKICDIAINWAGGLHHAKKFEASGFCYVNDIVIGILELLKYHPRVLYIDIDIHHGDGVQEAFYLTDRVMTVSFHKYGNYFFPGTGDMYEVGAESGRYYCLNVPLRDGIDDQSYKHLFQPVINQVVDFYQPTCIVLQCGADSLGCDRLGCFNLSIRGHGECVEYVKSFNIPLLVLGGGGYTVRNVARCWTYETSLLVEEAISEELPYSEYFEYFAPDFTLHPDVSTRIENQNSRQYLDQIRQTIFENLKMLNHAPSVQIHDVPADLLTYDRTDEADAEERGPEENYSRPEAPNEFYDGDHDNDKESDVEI
Sequence of HDAC3 (Q9Y618 395-489 partner limits assumed): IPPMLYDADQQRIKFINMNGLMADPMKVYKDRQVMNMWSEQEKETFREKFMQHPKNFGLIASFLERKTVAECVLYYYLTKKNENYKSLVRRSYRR
Sequence of HDAC2 (Q92769 whole entry): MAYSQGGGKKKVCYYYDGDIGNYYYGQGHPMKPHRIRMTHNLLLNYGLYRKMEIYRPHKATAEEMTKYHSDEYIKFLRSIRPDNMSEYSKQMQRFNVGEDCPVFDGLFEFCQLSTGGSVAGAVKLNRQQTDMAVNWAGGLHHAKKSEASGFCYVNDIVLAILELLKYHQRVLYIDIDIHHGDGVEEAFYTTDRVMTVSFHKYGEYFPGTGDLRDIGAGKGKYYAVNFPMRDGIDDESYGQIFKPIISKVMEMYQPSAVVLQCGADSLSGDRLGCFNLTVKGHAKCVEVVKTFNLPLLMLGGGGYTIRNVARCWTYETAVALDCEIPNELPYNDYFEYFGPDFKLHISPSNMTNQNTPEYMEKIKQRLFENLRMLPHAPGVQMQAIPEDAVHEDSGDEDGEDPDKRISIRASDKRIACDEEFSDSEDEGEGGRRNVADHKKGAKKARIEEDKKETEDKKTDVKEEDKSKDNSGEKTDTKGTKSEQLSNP

**Q.** What does the source list for `Cn1cc(CCCC(=O)Nc2ccc(C(=O)NO)cc2)c2ccccc21` [Compound I13, 4-(4-(1-Methyl-1H-indol-3-yl)butanamido)-N-hydroxybenzamide]?
**A.** ratio of apoptotic cells ([1]; HepG2, 0.2 µM, 24 h): 11.56%; flow cytometry quadrant Q1-LL ([1]; HepG2, 0.2 μM): 88.42%; flow cytometry quadrant Q1-LR ([1]; HepG2, 0.2 μM): 6.12%; flow cytometry quadrant Q1-UL ([1]; HepG2, 0.2 μM): 0.02%; flow cytometry quadrant Q1-UR ([1]; HepG2, 0.2 μM): 5.44%; flow cytometry quadrant Q1-LL ([1]; HepG2, 0.8 μM): 67.38%; flow cytometry quadrant Q1-LR ([1]; HepG2, 0.8 μM): 21.27%; flow cytometry quadrant Q1-UL ([1]; HepG2, 0.8 μM): 0.07%; flow cytometry quadrant Q1-UR ([1]; HepG2, 0.8 μM): 11.28%; IC50 [2]: > 5 µM; IC50 [3]: 0.78 µM; IC50 [4]: 0.326 µM; IC50 ([5]; pancreatic cancer, MTT): 1.17 µM; fold more active than SAHA, PNAC-1 cells ([5]; ratio of IC50 values): 5.6 fold; IC50 [6]: 1.34 µM; IC50 [7]: 2.87 µM; IC50 [8]: 1.44 µM; HDACs, percentage inhibition rate (PIR) [9]: 82.19 ± 1.60%; IC50 [10]: 0.284 µM; IC50 [11]: 0.23 µM; IC50 [12]: 0.00771 µM; IC50 ([13]; Homo sapiens, U-266, 48 h, read-out: U266 IC50): 0.16 ± 0.04 µM; fold more active than SAHA, U266 cells ([13]; ratio of IC50 values): 5.5 fold; IC50 [14]: 0.0139 µM; toxic signs in liver and spleen ([15]; 50 mg/kg/d intragastric, 16 days): no obvious toxic signs in liver and spleen were detected; tumour inhibitory ratio [15, 32]: 33.1%; mean weight of tumours [15, 32]: 0.303 g; mice body weight loss ([15]; mouse, in vivo): No evidence of mice body weight (measured every two days) loss; IC50 [16]: 6.34 µM; IC50 [17]: 0.0121 µM; IC50 ([18]; Homo sapiens, HepG2, 48 h, read-out: HepG2 IC50): 1.85 ± 0.31 µM; fold more active than SAHA, HepG2 cells ([18]; ratio of IC50 values): 4.7 fold; IC50 [19]: 7.67 µM; IC50 ([20]; A2780, ovarian cancer, MTT, read-out: A2780 IC50): 4.6 µM; fold more active than SAHA, A2780 cells ([20]; ratio of IC50 values): 5.9 fold; IC50 [21]: > 5 µM; water solubility [22]: good water solubility; IC50 [23]: 0.93 ± 0.08 µM; IC50 [24]: 2.19 µM; IC50 [25]: 0.81 µM; IC50 [26]: 1.26 µM; IC50 [27]: 14.9 µM; IC50 [28]: 0.0499 µM; IC50 [29]: 2.42 µM; IC50 [30]: 18.2 µM; IC50 [31]: 3.15 µM

**Q.** For `O=C(CCCCCCC(=O)Nc1ccccc1)NO` [SAHA, Suberoylanilide hydroxamic acid, reference compound], which “flow cytometry quadrant Q1-LL” value ([1]; HepG2, 0.2 μM) is on record?
**A.** 88.86%

**Q.** And the “flow cytometry quadrant Q1-LR” value ([1]; HepG2, 0.2 μM)?
**A.** 5.30%

**Q.** What about the “flow cytometry quadrant Q1-UL” value ([1]; HepG2, 0.2 μM) of the same compound?
**A.** 0.05%

**Q.** And the “flow cytometry quadrant Q1-UR” value ([1]; HepG2, 0.2 μM)?
**A.** 5.79%

**Q.** And the “flow cytometry quadrant Q1-LL” value ([1]; HepG2, 0.8 μM)?
**A.** 86.03%

**Q.** What about the “flow cytometry quadrant Q1-LR” value ([1]; HepG2, 0.8 μM) of the same compound?
**A.** 7.73%

**Q.** And the “flow cytometry quadrant Q1-UL” value ([1]; HepG2, 0.8 μM)?
**A.** 0.01%

**Q.** What about the “flow cytometry quadrant Q1-UR” value ([1]; HepG2, 0.8 μM) of the same compound?
**A.** 6.23%

**Q.** What about the “mean weight of tumours” value ([15]; 100 mg/kg/d intragastric, 16 days, HepG2 xenograft) of the same compound?
**A.** 0.322 g

**Q.** What about the IC50 ([20]; A2780, read-out: A2780 IC50) of the same compound?
**A.** 27.3 µM
